The subject of this assay is Chilo suppressalis. As to the kind of experiment: Potentiation of fenitrothion-induced insecticidal activity against OP-resistant Chilo suppressalis Hata-f (rice stem borer) assessed as synergistic ratio at 1:10 fenitrothion to compound ratio relative to fenitrothion alone. The class given is functional.
Turning to `CN(C)C(=O)Oc1c(Cl)cc(Cl)c2ccccc12`, the “fold change (FC)” value was 1.3.
As for `Cc1cc(OC(=O)N(C)C)nc(C)n1`, the figure is 11; as for `CCNC(=O)Oc1ccc([N+](=O)[O-])c(C)c1`, 0.7.
Turning to `CCNC(=O)Oc1ccc(SC)c(C)c1`, the “fold change (FC)” value is reported as 0.6.
For the compound `CCNC(=O)Oc1ccc(Cl)c(C)c1`, the “fold change (FC)” value is 1.2.
`CCNC(=O)Oc1cccc2ccccc12`: the “fold change (FC)” value was 1.
As for `Cc1cc(OC(=O)Nc2ccccc2)ccc1[N+](=O)[O-]`, the figure is 0.9.
As to `CSc1ccc(OC(=O)Nc2ccccc2)cc1C`, the “fold change (FC)” value is 0.7.
Take `Cc1cc(OC(=O)Nc2ccccc2)ccc1Cl`: the “fold change (FC)” value worked out at 0.8.
As for `O=C(Nc1ccccc1)Oc1cccc2ccccc12`, the figure is 1; as for `CN(C)C(=S)Oc1ccc([N+](=O)[O-])cc1`, 1.6.
In the case of `CSc1ccc(OC(=S)N(C)C)cc1`, the “fold change (FC)” value is listed as 2.3.
`CN(C)C(=S)Oc1ccc(C#N)cc1`: the “fold change (FC)” value turned out to be 2.1.
For the compound `Cc1cc(OC(=S)N(C)C)ccc1[N+](=O)[O-]`, the “fold change (FC)” value turned out to be 1.3.
As to `CSc1ccc(OC(=S)N(C)C)cc1C`, the “fold change (FC)” value is listed as 4.9.
Consider `Cc1cc(OC(=S)N(C)C)ccc1Cl`, for which the “fold change (FC)” value came out at 4.1.
`CN(C)C(=O)Sc1ccc([N+](=O)[O-])cc1`: the “fold change (FC)” value is on record as 1.9.
As for `CN(C)C(=O)Sc1ccc(Cl)cc1`, the figure is 1.9.
As for `CN(C)C(=O)Oc1ccc(=O)n(-c2ccccc2)n1`, the figure is 3.1; as for `CN(C)C(=O)Oc1cccc2ccccc12`, 13; as for `CN(C)C(=O)OCc1ccc2c(c1)OCO2`, 0.9.
With `CCOC(=O)/C=C(\C)OC(=O)N(C)C`, the “fold change (FC)” value is listed as 1.
`CCN(CC)C(=O)Oc1ccc([N+](=O)[O-])c(C)c1`: the “fold change (FC)” value is on record as 2.3.
For `CCN(CC)C(=O)Oc1ccc(SC)c(C)c1`, the “fold change (FC)” value is listed as 4.6.
For `CCN(CC)C(=O)Oc1ccc(Cl)c(C)c1`, the “fold change (FC)” value came out at 1.8.
On to `CCN(CC)C(=O)Oc1cccc2ccccc12`, for which the “fold change (FC)” value is given as 2.5.
As for `CCN(CC)C(=O)Oc1cc(C)nc(N(C)C)n1`, the figure is 13; as for `CCN(CC)C(=O)Oc1cc(C)nc(N(CC)CC)n1`, 8.7; as for `CCN(CC)C(=O)Oc1cc(-c2ccccc2)on1`, 4.1.
With `CNC(=O)Oc1ccc([N+](=O)[O-])c(C)c1`, the “fold change (FC)” value was found to be 1.1.
As for `CNC(=O)Oc1ccc(SC)c(C)c1`, the “fold change (FC)” value was 0.8.
As for `CNC(=O)Oc1ccc(Cl)c(C)c1`, the figure is 1.1; as for `CN(C)C(=O)Oc1ccc(-c2ccccc2)cc1`, 2.
As for `Cc1ccc([N+](=O)[O-])c(OC(=O)N(C)C)c1`, the figure is 3.1.
As for `Cc1ccc(OC(=O)N(C)C)c([N+](=O)[O-])c1`, the figure is 5.8; as for `Cc1cc(OC(=O)N(C)C)ccc1Cl`, 12.
In the case of `CN(C)C(=O)Oc1ccc([N+](=O)[O-])cc1Cl`, the “fold change (FC)” value came out at 2.4.
As for `CN(C)C(=O)Oc1ccc([N+](=O)[O-])c(Cl)c1`, the figure is 6.3; as for `CN(C)C(=O)Oc1ccc([N+](=O)[O-])c(C(F)(F)F)c1`, 8; as for `Cc1c(OC(=O)N(C)C)cc([N+](=O)[O-])cc1[N+](=O)[O-]`, 1.1.
The result for `Cc1cc(OC(=O)N(C)C)cc(C)c1Cl` reads 11; that for `CN(C)C(=O)Oc1ccccn1`, 11.
As for `CN(C)C(=O)Oc1nc(Cl)c(Cl)cc1Cl`, the figure is 4.1; as for `CN(C)C(=O)Oc1ccc2ccccc2n1`, 15; as for `CN(C)C(=O)Oc1cccc2cccnc12`, 4.6.
Regarding `Cc1cc(OC(=O)N(C)C)nc(-c2ccccc2)n1`, the “fold change (FC)” value came to 13.
`CSc1nc(C)cc(OC(=O)N(C)C)n1`: the “fold change (FC)” value came out at 14.
For the compound `COc1nc(C)cc(OC(=O)N(C)C)n1`, the “fold change (FC)” value turned out to be 13.
Regarding `Cc1cc(OC(=O)N(C)C)nc(C(C)C)n1`, the “fold change (FC)” value turned out to be 15.
Regarding `Cc1cc(OC(=O)N(C)C)nc(Nc2ccccc2)n1`, the “fold change (FC)” value came out at 2.8.
As for `CCC(C)c1ccccc1OC(=O)N(C)C` (configuration not stated), the figure is 1.8; as for `CN(C)C(=O)Oc1cccc(C(C)(C)C)c1`, 3.5; as for `CN(C)C(=O)Oc1cc(Cl)c(Cl)cc1Cl` [2,4,5-TRICHLOROPHENYL DIMETHYLCARBAMATE], 5.8.
As for `CN(C)C(=O)Oc1ccc([N+](=O)[O-])cc1[N+](=O)[O-]` [2,4-DINITROPHENYL DIMETHYLCARBAMATE], the figure is 0.8; as for `CN(C)CCOC(=O)N(C)C` [2-(DIMETHYLAMINO)ETHYL DIMETHYLCARBAMATE], 1.
As for `CCSCCOC(=O)N(C)C` [2-(ETHYLTHIO)ETHYL DIMETHYLCARBAMATE], the figure is 1; as for `CN(C)C(=O)Oc1ccccc1Cl` [2-CHLOROPHENYL DIMETHYLCARBAMATE], 5.1.
As for `CN(C)C(=O)Oc1ccccc1[N+](=O)[O-]` [2-NITROPHENYL DIMETHYLCARBAMATE], the “fold change (FC)” value worked out at 5.8.
As to `Cc1ccc(OC(=O)N(C)C)cc1C` [3,4-DIMETHYLPHENYL DIMETHYLCARBAMATE], the “fold change (FC)” value is 9.5.
As for `Cc1cc(C)cc(OC(=O)N(C)C)c1` [3,5-DIMETHYLPHENYL DIMETHYLCARBAMATE], the figure is 5.8; as for `CN(C)C(=O)Oc1cccc(Cl)c1` [3-CHLOROPHENYL DIMETHYLCARBAMATE], 11; as for `CC(C)c1cccc(OC(=O)N(C)C)c1` [3-ISOPROPYLPHENYL DIMETHYLCARBAMATE], 4.3.
The result for `CN(C)C(=O)Oc1cccc([N+](=O)[O-])c1` [3-NITROPHENYL DIMETHYLCARBAMATE] reads 8.2; that for `CCN(CC)C(=O)Oc1ccc(SC)cc1` [4-(METHYLTHIO)PHENYL DIETHYLCARBAMATE], 2.9.
Take `CSc1ccc(OC(=O)N(C)C)cc1` [4-(METHYLTHIO)PHENYL DIMETHYLCARBAMATE]: the “fold change (FC)” value was 16.
The result for `CCNC(=O)Oc1ccc(SC)cc1` [4-(METHYLTHIO)PHENYL ETHYLCARBAMATE] reads 1.4; that for `CNC(=O)Oc1ccc(SC)cc1` [4-(METHYLTHIO)PHENYL METHYLCARBAMATE], 1.1.
On to `CC(=O)c1ccc(OC(=O)N(C)C)cc1` [4-ACETYLPHENYL DIMETHYLCARBAMATE], for which the “fold change (FC)” value amounted to 6.9.
Take `CN(C)C(=O)Oc1ccc(Cl)cc1` [4-CHLOROPHENYL DIMETHYLCARBAMATE]: the “fold change (FC)” value amounted to 10.
The result for `CCN(CC)C(=O)Oc1ccc(C#N)cc1` [4-CYANOPHENYL DIETHYLCARBAMATE] reads 1.7; that for `CN(C)C(=O)Oc1ccc(C#N)cc1` [4-CYANOPHENYL DIMETHYLCARBAMATE], 14.
The result for `CCNC(=O)Oc1ccc(C#N)cc1` [4-CYANOPHENYL ETHYLCARBAMATE] reads 1.5.
As for `CNC(=O)Oc1ccc(C#N)cc1` [4-CYANOPHENYL METHYLCARBAMATE], the figure is 1.1.
Regarding `N#Cc1ccc(OC(=O)Nc2ccccc2)cc1` [4-CYANOPHENYL PHENYLCARBAMATE], the “fold change (FC)” value was 0.8.
The result for `COc1ccc(OC(=O)N(C)C)cc1` [4-METHOXYPHENYL DIMETHYLCARBAMATE] reads 3; that for `CN(C)C(=O)OCc1ccc([N+](=O)[O-])cc1` [4-NITROBENZYL DIMETHYLCARBAMATE], 1; that for `CCN(CC)C(=O)Oc1ccc([N+](=O)[O-])cc1` [4-NITROPHENYL DIETHYLCARBAMATE], 3.3.
Consider `CN(C)C(=O)Oc1ccc([N+](=O)[O-])cc1` [4-NITROPHENYL DIMETHYLCARBAMATE], for which the “fold change (FC)” value was 10.
As for `CCNC(=O)Oc1ccc([N+](=O)[O-])cc1` [4-NITROPHENYL ETHYLCARBAMATE], the figure is 1.2; as for `CNC(=O)Oc1ccc([N+](=O)[O-])cc1` [4-NITROPHENYL METHYLCARBAMATE], 0.9.
For `O=C(Nc1ccccc1)Oc1ccc([N+](=O)[O-])cc1` [4-NITROPHENYL PHENYLCARBAMATE], the “fold change (FC)” value is 0.9.
As for `CN(C)C(=O)OCc1ccccc1` [BENZYL DIMETHYLCARBAMATE], the figure is 0.9; as for `CCOC(=O)Nc1ccccc1` [ETHYL PHENYLCARBAMATE], 0.8.
The result for `CC(C)OC(=O)c1ccc(OC(=O)N(C)C)cc1` [ISOPROPYL 4-(DIMETHYLCARBAMOYLOXY)BENZOATE] reads 0.9; that for `Cc1cccc(OC(=O)N(C)C)c1` [M-TOLYL DIMETHYLCARBAMATE], 9.2; that for `COC(=O)c1ccc(OC(=O)N(C)C)cc1` [METHYL 4-(DIMETHYLCARBAMOYLOXY)BENZOATE], 6.3.
As for `CN(C)C(=O)Oc1ccc2ccccc2c1` [NAPHTHALEN-2-YL DIMETHYLCARBAMATE], the figure is 16; as for `Cc1ccccc1OC(=O)N(C)C` [O-TOLYL DIMETHYLCARBAMATE], 4.3; as for `Cc1ccc(OC(=O)N(C)C)cc1` [P-TOLYL DIMETHYLCARBAMATE], 8.1.
As for `CN(C)C(=O)Oc1ccccc1` [PHENYL DIMETHYLCARBAMATE], the “fold change (FC)” value is given as 5.8.
The result for `Cc1nc(N(C)C)nc(OC(=O)N(C)C)c1C` [PIRIMICARB] reads 6.3; that for `CN(C)C(=O)SCc1ccccc1` [S-BENZYL DIMETHYLCARBAMOTHIOATE], 1.

Source of the values: ChEMBL document CHEMBL3044873, “Aryl N, N-Dimethylcarbamates, Synergists for Organophosphorus Insecticides against Organophos-phorusresistant Rice Stem Borers” (J Pestic Sci, 1990).
